# Reference: patent publication US7291730B2, “Pyrimidine compounds and their use” (Sumitomo Chemical Company, Limited, priority 2000, dated 2007)
# Test system: Western Flower Thrips (Frankliniella occidentalis)
# Assay: Insecticidal test against western flower thrips, sprayed cucumber leaves (Test Example 3)
# Assay type: in vivo
# Details: 500 ppm, sprayed 20 ml/cup onto cucumber, thirty larvae on cut first foliage leaves, after 7 days
# Procedure: A formulation of a test compound obtained in Formulation Example 5 was diluted with water so that the active ingredient concentration came to 500 ppm to prepare a test spray solution. The seeds of cucumber were planted in polyethylene cups and grown until their first foliage leaves developed, and the above test spray solution was sprayed at the rate of 20 ml/cup onto these cucumber plants. After the chemical solution sprayed onto the cucumber plants was dried, the first foliage leaves were cut off and placed on a water-containing filter paper (70 mm in diameter) in a polyethylene cup (110 mm in diameter). Thirty larvae of western flower thrips (Frankliniella occidentalis) were set free in the polyethylene cup, and the lid was put on the polyethylene cup. After 7 days, the number of surviving insects was examined.
row,SMILES,number of surviving insects
1,CC#CCOc1ncnc(Oc2cccc(F)c2F)c1F [(180)],zero
2,CC#CCOc1cc(Cc2c(F)cccc2F)ncn1 [(80)],zero
3,CC#CCOc1cc(-c2ccc(F)cc2F)ncn1 [(44)],zero
4,C#CC(C)Oc1cc(-c2cccc(F)c2F)ncn1 (centres unmarked) [(134)],zero
5,C#CCOc1cc(-c2ccccc2F)ncn1 [(54)],zero
